Molecules are shown by their SMILES. Calls of active or inactive are those of the source. The rule behind the calls is not given here.

A word on the Kd: it is the constant that tells how readily two partners part at equilibrium.

The test has as its target Serine/threonine-protein kinase mTOR (Homo sapiens) (UniProt P42345). The test can be described thus: mTOR FRB domain ligand binding – biophysical, NMR (AID 1648). The following applies: NMR binding to FRB domain, chemical shift.

Chain of Serine/threonine-protein kinase mTOR (Homo sapiens) (P42345 2015-2114): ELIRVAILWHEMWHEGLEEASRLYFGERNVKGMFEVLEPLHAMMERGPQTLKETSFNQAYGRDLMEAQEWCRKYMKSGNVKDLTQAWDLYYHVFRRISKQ

Regarding `Cc1cc(=O)cc(C)n1-c1ccccc1N1CCOCC1`, the Kd was > 4 mM (inactive).

`CNC(=O)C(=O)NCc1ccc(C)cc1`: the Kd was > 4 mM (inactive).

For `Nc1ncnc(Nc2ccccc2C(F)(F)F)n1`, the Kd is > 4 mM (inactive).

With `c1ccc(SCc2nc(-c3ccncc3)no2)cc1`, the Kd is > 4 mM (inactive).

As for `Clc1ccc(-c2nnc3ccccn23)cc1`, the Kd is > 4 mM (inactive).

Take `NCC(N)C(=O)c1ccccc1` (stereo not drawn): the Kd was > 4 mM (inactive).

For `CNC(=O)C(=O)Nc1ccc(C)c(C)c1`, the Kd is > 4 mM (inactive).

Regarding `O=c1[nH]c2c(c(=O)n1C1CCCCC1)CCC2`, the Kd is > 4 mM (inactive).

For `O=C(CC1CCCCC1)N1CCN(c2ccccn2)CC1`, the Kd is > 4 mM (inactive).

As for `O=C(Nc1cccnc1)c1c(F)c(F)c(F)c(F)c1F`, the Kd was > 4 mM (inactive).

For `Cn1c(SCC(=O)NCCO)nc2ccccc2c1=O`, the Kd is > 4 mM (inactive).

For `C=C(C)[C@H]1COc2cc3oc(=O)ccc3cc2O1`, the Kd was > 4 mM (inactive).

For the compound `COc1ccccc1/C=C\C(=O)O`, the Kd was > 4 mM (inactive).

Take `Cn1c(=O)c2c(n(C)c1=O)=NC1(CCCCC1)N=2`: the Kd was > 4 mM (inactive).

Take `O=C1CCC(c2cccs2)=NN1`: the Kd is > 4 mM (inactive).

In the case of `Cc1nnsc1C(=O)Nc1ccccc1[N+](=O)[O-]`, the Kd was > 4 mM (inactive).

Regarding `OCc1cc(-c2cccs2)on1`, the Kd is > 4 mM (inactive).

In the case of `OCc1ccccc1N1CCOCC1`, the Kd was > 4 mM (inactive).

In the case of `COc1c(OC)c2occc2c2oc(=O)ccc12`, the Kd was > 4 mM (inactive).

In the case of `COC(=O)[C@H]1[C@H]2C[C@H]3c4[nH]c5ccccc5c4CCN3C[C@H]2CC[C@@H]1O`, the Kd is > 4 mM (inactive).

As for `CC1CN(C(=O)c2ccncc2)CC(C)O1` (stereo not drawn), the Kd was > 4 mM (inactive).

For `Cc1cc(C(=O)Nc2nnc(C(F)(F)F)s2)no1`, the Kd is > 4 mM (inactive).

In the case of `COC(=O)C[C@H]1C(C)(C)C(=O)[C@@H]2CC3C4=CC(=O)O[C@@H](c5ccoc5)[C@]4(C)CCC3C1(C)C2=O` (stereo partly drawn), the Kd was > 4 mM (inactive).

Regarding `COC(=O)c1c(SC)nc(-c2ccccc2)[nH]c1=O`, the Kd was > 4 mM (inactive).

In the case of `Cc1cc(C)nc(/N=C(/N)Nc2cccc(F)c2)n1`, the Kd was > 4 mM (inactive).

As to `CN(Cc1nc2ccccc2n1C)C(=O)c1cccs1`, the Kd is > 4 mM (inactive).

With `c1csc(-c2nn[nH]n2)c1`, the Kd was > 4 mM (inactive).

With `CSc1ccc2nnc(-c3cccnc3)n2n1`, the Kd is > 4 mM (inactive).

Take `O=C(O)c1cccnc1`: the Kd is > 4 mM (inactive).

In the case of `CC(=O)Nc1cccc(-c2nnc3n2CC(C)S3)c1` (stereo not drawn), the Kd was > 4 mM (inactive).

Regarding `O=C(Nc1nccs1)c1cccnc1`, the Kd is > 4 mM (inactive).

With `COc1cc([C@@H]2c3cc4c(cc3[C@H](O)[C@H]3COC(=O)[C@H]23)OCO4)cc(OC)c1OC`, the Kd is > 4 mM (inactive).

As for `CC(C)C1COc2cc3oc(=O)ccc3cc2O1` (stereo not drawn), the Kd was > 4 mM (inactive).

On to `O=c1ccnc(Nc2ccccc2O)[nH]1`, for which the Kd is > 4 mM (inactive).

Consider `NCCCCNCCCN`, for which the Kd was > 4 mM (inactive).

On to `Cc1cc(-c2ccccc2)nc2cc(C(N)=O)nn12`, for which the Kd was > 4 mM (inactive).

With `CNC(=O)c1ccccc1N`, the Kd was > 4 mM (inactive).

As for `Cc1cccc(NC(=O)NC(N)=O)c1`, the Kd was > 4 mM (inactive).

For `COCC(=O)Nc1nc2ccc(C)cc2s1`, the Kd was > 4 mM (inactive).

`c1ccc(CCc2nc(-c3ccccn3)no2)cc1`: the Kd was > 4 mM (inactive).

Take `Cc1cc(C)nc(/N=C(/N)N2CCN(C)CC2)n1`: the Kd was > 4 mM (inactive).

With `CCOC(=O)c1csc(C)n1`, the Kd is > 4 mM (inactive).

On to `Cc1nnc(NC(=O)C(C)Sc2nncn2C)s1` (stereo not drawn), for which the Kd was > 4 mM (inactive).

For the compound `CC(=O)c1cc(C(N)=O)c(=S)[nH]c1C`, the Kd is > 4 mM (inactive).

For the compound `Cc1oc(-c2ccccc2)cc1C(=O)O`, the Kd was > 4 mM (inactive).

For `O=C1CNC(=O)/C1=C/c1ccc(O)cc1`, the Kd was > 4 mM (inactive).

Take `Cc1ccc(C)n1NC(=O)c1cccs1`: the Kd was > 4 mM (inactive).

Take `COc1ccc2cnn(-c3ccccc3)c(=O)c2c1OC`: the Kd was > 4 mM (inactive).

As to `O=C(NCCO)NC(=S)c1ccccc1`, the Kd was > 4 mM (inactive).

In the case of `NC(N)=NCCCCN=C(N)N`, the Kd was > 4 mM (inactive).

`COc1cc2c3cc1Oc1c(OC)c(OC)cc4c1[C@@H](Cc1cccc(c1)Oc1ccc(c(O)c1)C[C@@H]3N(C)CC2)N(C)CC4`: the Kd is > 4 mM (inactive).

As to `Cn1ccnc1C(O)c1ccccc1` (stereo not drawn), the Kd was > 4 mM (inactive).

Take `c1ccc2c(NC3=NCCS3)cccc2c1`: the Kd is > 4 mM (inactive).

For `Nc1ccc(NC(=O)c2ccco2)c(Cl)c1`, the Kd is > 4 mM (inactive).

Take `NCc1ccc2occc2c1`: the Kd was > 4 mM (inactive).

Regarding `O=c1cc(O)nc(SCc2ccccc2)[nH]1`, the Kd is > 4 mM (inactive).

As to `COc1ccc(CN2CCNC(=O)C2CC(=O)O)cc1C` (stereo not drawn), the Kd was > 4 mM (inactive).

On to `CC1CCC2(OC1)OC1CC3C4CCC5C[C@@H](O)CCC5(C)C4=CCC3(C)C1[C@@H]2C` (stereo partly drawn), for which the Kd is > 4 mM (inactive).

As for `CC(C)(C)C(=O)Nc1nnc(SCC(N)=O)s1`, the Kd was > 4 mM (inactive).

With `COc1cc2c(cc1OC)[C@@H]1C(=O)c3ccc4c(c3O[C@@H]1CO2)CC(C(C)C)O4` (stereo partly drawn), the Kd is > 4 mM (inactive).

In the case of `S=c1nc[nH]c2c1cnn2-c1ccccc1`, the Kd is > 4 mM (inactive).

As to `O=C1NCCCC1C(=O)N/N=C/c1ccccc1` (stereo not drawn), the Kd was > 4 mM (inactive).

`Cc1cc(NC(=O)c2cc(C)on2)no1`: the Kd was > 4 mM (inactive).

With `C/C=C(/C)C(=O)O[C@@H]1[C@H](OC(C)=O)[C@@]2(CO)C(CC1(C)C)C1=CCC3[C@@]4(C)CC[C@H](O[C@@H]5O[C@H](C(=O)O)[C@@H](O[C@@H]6O[C@H](CO)[C@@H](O)[C@H](O)[C@H]6O)[C@H](O)[C@H]5O[C@@H]5O[C@H](CO)[C@@H](O)[C@H](O)[C@H]5O)[C@](C)(CO)C4CC[C@@]3(C)[C@]1(C)C[C@H]2O` (stereo partly drawn), the Kd is > 4 mM (inactive).

With `COc1ccc(-c2ccc(=O)n(CC(N)=O)n2)cc1`, the Kd was > 4 mM (inactive).

With `Cn1nc(C(=O)Nc2cccnc2)cc1Cl`, the Kd was > 4 mM (inactive).

On to `CC(=O)Nc1nnc(-c2ccccn2)o1`, for which the Kd was > 4 mM (inactive).

For the compound `O=C(COc1ccccc1)N1CCc2ccccc2C1`, the Kd is > 4 mM (inactive).

As to `Cn1cc(Cl)c(C(=O)Nc2ccc(F)cc2F)n1`, the Kd is > 4 mM (inactive).

Turning to `Nc1cccc(C(=O)Nc2ccc(N)cc2Cl)c1`, the Kd was > 4 mM (inactive).

For `O=C(O)CNC(=O)c1ccccc1`, the Kd was > 4 mM (inactive).

Consider `Cc1cc(C(=O)NN2CCOCC2)c(C)o1`, for which the Kd was > 4 mM (inactive).

For the compound `COc1cccc(Oc2ccc(N)cc2)c1`, the Kd is > 4 mM (inactive).

Values taken from PubChem BioAssay AID1648 (Sanford-Burnham Center for Chemical Genomics, 2009).
